Test results as given in patent US20100087523A1, “Rupestonic acid derivatives and use thereof” (priority 2008, published 2010).

What was measured:
[1] = system: A-type flu virus (jifang/90-15)
[2] = system: B-type flu virus (jifang/97-13)

SMILES	Activity for inhibiting A-type flu viruses SI (selection index, SI = TC50/IC50) [1]	Activity for inhibiting B-type flu viruses SI (selection index, SI = TC50/IC50) [2]
C=C(C(=O)Oc1ccc(Cl)cc1)C1CCC(C)C2CC(=O)C(C)=C2C1 (stereo not shown) [B-2, Rupestonic (p-chlorophenyl)-ester]	12.6	–
C=C(C(=O)O)[C@H]1CC[C@H](C)[C@@H]2CC(=O)C(C)=C2C1 [Compound 1, rupestonic acid]	–	9.00
C=C(C(=O)Nc1ccccc1Br)C1CCC(C)C2CC(=O)C(C)=C2C1 (stereo not shown) [A-5, N(2-bromo-phenyl)-Rupestonic amide]	3.3	–
C=C(C(=O)OCc1ccc([N+](=O)[O-])cc1)C1CCC(C)C2CC(=O)C(C)=C2C1 (stereo not shown) [B-15, Rupestonic (p-nitryl-benzyl)-ester]	4.6	4.6
C=C(C(=O)Oc1ccc(C)cc1)C1CCC(C)C2CC(=O)C(C)=C2C1 (stereo not shown) [B-9, Rupestonic (p-methylphenyl)-ester]	14.3	–
C=C(C(=O)Oc1ccccc1Cl)C1CCC(C)C2CC(=O)C(C)=C2C1 (stereo not shown) [B-3, Rupestonic (o-chlorophenyl)-ester]	4.3	–
C=C(C(=O)OCc1ccccc1Br)C1CCC(C)C2CC(=O)C(C)=C2C1 (stereo not shown) [B-17, Rupestonic (o-bromobenzyl)-ester]	3.9	2.2
C=C(C(=O)Oc1ccc(Br)cc1)C1CCC(C)C2CC(=O)C(C)=C2C1 (stereo not shown) [B-4, Rupestonic (p-bromophenyl)-ester]	4.3	–
NC(=O)c1ncn([C@@H]2O[C@H](CO)[C@@H](O)[C@H]2O)n1 [Ribavirin]	982.8	132.1
CCOC(=O)C1=C[C@@H](OC(CC)CC)[C@H](NC(C)=O)[C@@H](N)C1 [Oseltamivir]	>239.1	–
C=C(C(=O)OCc1ccc(Cl)cc1)C1CCC(C)C2CC(=O)C(C)=C2C1 (stereo not shown) [B-14, Rupestonic (p-chlorobenzyl)-ester]	3.8	2.5
C=C(C(=O)Nc1ccc(Cl)cc1)C1CCC(C)C2CC(=O)C(C)=C2C1 (stereo not shown) [A-2, N(4-chloro-phenyl)-Rupestonic amide]	6.3	4.0
C=C(C(=O)OCC)C1CCC(C)C2CC(=O)C(C)=C2C1 (stereo not shown) [B-1, Ethyl Rupestonic ester]	4.9	3.8
